Results published in ChEMBL document CHEMBL1135513 (J Med Chem, 2002).

What was measured:
[1] = target: T1, GABA-A receptor; alpha-1/beta-2/gamma-2 (Homo sapiens, UniProt P14867+P18507+P47870); assay: Potentiation of GABA responses at human Gamma-aminobutyric acid A receptor alpha-1-beta-2-gamma-2; format: protein-complex assay
T1 sequence (P14867 whole entry): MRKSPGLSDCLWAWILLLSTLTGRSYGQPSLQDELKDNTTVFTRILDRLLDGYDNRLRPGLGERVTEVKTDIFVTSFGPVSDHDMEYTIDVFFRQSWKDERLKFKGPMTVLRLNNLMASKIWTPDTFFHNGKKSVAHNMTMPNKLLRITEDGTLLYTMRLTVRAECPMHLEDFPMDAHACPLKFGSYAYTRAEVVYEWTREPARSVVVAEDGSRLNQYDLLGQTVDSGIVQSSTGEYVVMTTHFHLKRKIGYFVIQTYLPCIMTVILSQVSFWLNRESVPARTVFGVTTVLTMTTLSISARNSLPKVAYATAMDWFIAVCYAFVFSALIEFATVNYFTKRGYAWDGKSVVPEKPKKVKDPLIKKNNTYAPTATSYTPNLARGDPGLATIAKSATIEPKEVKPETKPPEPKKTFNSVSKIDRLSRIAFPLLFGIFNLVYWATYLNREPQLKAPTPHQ
T1 sequence (P47870 whole entry): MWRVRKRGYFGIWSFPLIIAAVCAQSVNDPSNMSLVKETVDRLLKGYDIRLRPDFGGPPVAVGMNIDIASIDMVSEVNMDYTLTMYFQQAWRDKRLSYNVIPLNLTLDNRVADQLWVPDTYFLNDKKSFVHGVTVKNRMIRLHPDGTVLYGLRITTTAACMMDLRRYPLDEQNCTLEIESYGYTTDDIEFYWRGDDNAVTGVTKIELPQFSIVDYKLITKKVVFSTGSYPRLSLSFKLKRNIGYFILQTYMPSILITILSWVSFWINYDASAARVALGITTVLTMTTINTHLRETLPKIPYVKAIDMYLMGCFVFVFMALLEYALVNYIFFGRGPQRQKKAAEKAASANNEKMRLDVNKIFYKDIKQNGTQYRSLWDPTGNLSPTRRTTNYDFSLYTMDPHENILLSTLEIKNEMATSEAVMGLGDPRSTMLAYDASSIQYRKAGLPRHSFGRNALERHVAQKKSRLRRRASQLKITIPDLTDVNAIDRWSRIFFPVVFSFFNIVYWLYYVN
T1 sequence (P18507 whole entry): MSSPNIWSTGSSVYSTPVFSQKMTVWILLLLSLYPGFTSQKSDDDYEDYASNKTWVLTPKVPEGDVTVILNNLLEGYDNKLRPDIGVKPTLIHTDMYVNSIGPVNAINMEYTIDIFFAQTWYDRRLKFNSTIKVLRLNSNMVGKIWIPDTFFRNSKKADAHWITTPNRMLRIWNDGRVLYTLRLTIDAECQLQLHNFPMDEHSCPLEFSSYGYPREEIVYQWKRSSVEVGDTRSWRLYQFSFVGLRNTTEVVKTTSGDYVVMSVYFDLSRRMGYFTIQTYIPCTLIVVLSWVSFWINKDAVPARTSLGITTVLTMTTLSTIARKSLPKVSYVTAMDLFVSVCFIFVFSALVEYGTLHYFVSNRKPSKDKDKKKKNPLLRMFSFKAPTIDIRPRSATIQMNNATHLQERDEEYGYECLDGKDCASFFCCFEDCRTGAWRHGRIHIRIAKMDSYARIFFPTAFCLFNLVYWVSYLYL

[2] = target: T1, GABA-A receptor; alpha-1/beta-2/gamma-2; assay: Direct activation of human Gamma-aminobutyric acid A receptor alpha-1-beta-2-gamma-2; format: protein-complex assay
Xenopus laevis [3] = assay: Loss of righting reflex (LORR) in tadpoles was determined for anesthetic activity; format: functional, organism-based, frog; conditions: Tadpole
Xenopus laevis [4] = assay: Loss of righting reflex (LORR) in Xenopus laevis tadpoles was determined for anesthetic activity; format: functional, organism-based, frog; conditions: Tadpole

Structure (SMILES) | EC50 [1] [µM] | EC50 [2] [µM] | EC50 (Xenopus laevis [3]) [µM] | EC50 (Xenopus laevis [4]) [µM]
Oc1c(C2CCCCC2)cccc1C1CCCCC1 | 100000 | – | – | –
CC(C)Cc1cccc(CC(C)C)c1O | 2.51 | 20 | 0.398 | –
CCc1cccc(CC)c1N=C=S | 15.8 | 316 | 158 | –
Oc1ccccc1C1CCCC1 | 100000 | – | – | –
CCc1cccc(CC)c1N=C=O | 25.1 | 251 | 158 | –
CC(C)c1cc(O)c(O)c(C(C)C)c1 | 39.8 | 200 | 50.1 | –
CCc1cccc(CC)c1Br | 20 | 126 | 158 | –
Cc1cccc(C(C)(C)C)c1O | 0.501 | 20 | 31.6 | –
CCc1cccc(CC)c1O | 12.6 | 126 | 20 | –
CC(C)c1ccccc1O | 39.8 | 158 | 126 | –
Cc1cccc(C)c1O | 126 | 200 | 63.1 | –
CC(C)(C)c1cc(O)cc(C(C)(C)C)c1 | 100 | 501 | 100 | –
CC(C)c1cc(I)cc(C(C)C)c1O | 10 | 31.6 | – | 2.51
Oc1ccccc1 [PHENOL] | 1000 | – | 1580 | –
CC(C)c1cccc(C(C)C)c1O [PROPOFOL] | 2 | 10 | 2 | –
COc1cccc(OC)c1O [SYRINGOL] | 100000 | – | – | –
